The values below come from patent US6437138B1, “3-pyridyloxymethyl heterocyclic ether compounds useful in controlling chemical synaptic transmission” (priority 1996, dated 2002).

pKi: −log10 of the molar value. Structures can show the parent of a compound that is named as a salt.

Data set [1] addresses neuronal nicotinic cholinergic channels in IMR-32 cells (Homo sapiens, UniProt P30926+P32297). The experiment in a line: 86Rb+ efflux in IMR-32 cells (activation, or inhibition of efflux elicited by (S)-nicotine). Format: cell-based. The conditions noted are these: IMR-32; for inhibition at 1 µM / inhibition at 10 µM: inhibition of the efflux elicited by 100 μM (S)-nicotine; for inhibition at 1 µM: single dose 1 μM; for inhibition at 10 µM: single dose 10 μM. The source says: For the purpose of directly evaluating the ability of test compounds to functionally activate or inhibit certain subtypes of neuronal nicotinic cholinergic channels, an assay to determine ^86Rb^+Efflux in IMR-32 cells was employed (Protocol B below).
B. Protocols for the Determination of Functional Effects of Cholinerzic Channel Receptor Ligands on Synaptic Transmission
Cells of the IMR-32 human neuroblastoma clonal cell line (ATCC, Rockville, Md.) were maintained in a log phase of growth according to established procedures (Lukas, 1993). Experimental cells were seeded at a density of 500,000 cells/ml into a 24-well tissue culture dish. Plated cells were allowed to proliferate for at least 48 hours before loading with 2 μCi/ml of ^86Rb^+ (35 Ci/mmol) overnight at 37° C. The ^86Rb^+ efflux assays were performed according to previously published protocols (Lukas, R. J., J. Pharmacol. Exp. Ther., 265: 294-302, 1993) except serum-free Dulbecco's Modified Eagle's Medium was used during the ^86Rb^+ loading, rinsing, and agonist-induced efflux steps.
EC50 data and maximal responses (reported as percent relative to the response elicited by 100 μM (S)-nicotine) are shown for selected compounds of the invention. The inhibition data (given for a larger number of compounds) reflect inhibition of the efflux elicited by 100 μM (S)-nicotine for either a single dose (% inhibition at 1 μM or at 10 μM) or over a range of doses (IC50 of inhibition). […] This finding is in agreement with the results of others who have linked dopamine release, which is dependent upon the ion flux in synaptic transmission, to binding at nicotinic receptors (cf., for example, Lippiello and Caldwell, U.S. Pat. No. 5,242,935, issued Sep. 7, 1993; Caldwell and Lippiello, U.S. Pat. No. 5,248,690, issued Sep. 28, 1993; and Wonnacott et al., Prog. Brain Res., 79: 157-163 (1989)).

The target in data set [2] is neuronal nicotinic cholinergic channel receptors (Rattus norvegicus, UniProt P09483+P12390). The following applies: displacement of [3H]-cytisine (1.25 nM), whole rat brain membranes; Ki from IC50 by Cheng and Prusoff correction; read-out: Binding Ki. As to the method:
A. Protocol For Determination of Nicotinic Cholinergic Channel Receptor Binding Potencies of Ligands
Binding of [^3H]-cytisine ([^3H]-CYT) to nicotinic receptors was accomplished using crude synaptic membrane preparations from whole rat brain (Pabreza et al., Molecular Pharmacol, 1990, 39:9). Washed membranes were stored at −80° C. prior to use. Frozen aliquots were slowly thawed and resuspended in 20 volumes of buffer (containing: 120 mM NaCl, 5 mM KCl, 2 mM MgCl2, 2 mM CaCl2 and 50 mM Tris-Cl, pH 7.4 @ 4° C.). After centrifuging at 20,000×g for 15 minutes, the pellets were resuspended in 30 volumes of buffer. Homogenate (containing 125-150 μg protein) was added to triplicate tubes containing concentrations of test compound and [^3H]-CYT (1.25 nM) in a final volume of 500 μL. Samples were incubated for 60 minutes at 4° C., then rapidly filtered through Whatman GF/B filters presoaked in 0.5% polyethyleneimine using 3×4 mL of ice-cold buffer. The filters are counted in 4 mL of Ecolume® (ICN). Nonspecific binding was determined in the presence of […] (−)-nicotine and values were expressed as a percentage of total binding.

Chain of neuronal nicotinic cholinergic channel receptors (P09483 31-630): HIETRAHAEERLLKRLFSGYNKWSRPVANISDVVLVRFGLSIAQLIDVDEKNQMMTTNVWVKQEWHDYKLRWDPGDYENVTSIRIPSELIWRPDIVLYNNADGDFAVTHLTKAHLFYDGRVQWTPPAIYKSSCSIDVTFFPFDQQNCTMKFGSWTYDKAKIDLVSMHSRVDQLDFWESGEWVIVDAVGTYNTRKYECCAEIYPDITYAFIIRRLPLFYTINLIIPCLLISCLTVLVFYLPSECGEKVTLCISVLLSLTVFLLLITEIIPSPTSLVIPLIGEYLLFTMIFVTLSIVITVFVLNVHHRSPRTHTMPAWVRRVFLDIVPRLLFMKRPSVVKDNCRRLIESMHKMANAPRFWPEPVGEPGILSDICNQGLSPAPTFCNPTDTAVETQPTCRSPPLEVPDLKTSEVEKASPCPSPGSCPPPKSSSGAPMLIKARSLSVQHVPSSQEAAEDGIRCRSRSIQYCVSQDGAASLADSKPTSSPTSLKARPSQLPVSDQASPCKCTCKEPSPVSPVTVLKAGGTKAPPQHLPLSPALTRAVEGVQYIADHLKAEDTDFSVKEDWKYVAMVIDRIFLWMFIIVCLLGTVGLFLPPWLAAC
Chain of neuronal nicotinic cholinergic channel receptors (P12390 25-500): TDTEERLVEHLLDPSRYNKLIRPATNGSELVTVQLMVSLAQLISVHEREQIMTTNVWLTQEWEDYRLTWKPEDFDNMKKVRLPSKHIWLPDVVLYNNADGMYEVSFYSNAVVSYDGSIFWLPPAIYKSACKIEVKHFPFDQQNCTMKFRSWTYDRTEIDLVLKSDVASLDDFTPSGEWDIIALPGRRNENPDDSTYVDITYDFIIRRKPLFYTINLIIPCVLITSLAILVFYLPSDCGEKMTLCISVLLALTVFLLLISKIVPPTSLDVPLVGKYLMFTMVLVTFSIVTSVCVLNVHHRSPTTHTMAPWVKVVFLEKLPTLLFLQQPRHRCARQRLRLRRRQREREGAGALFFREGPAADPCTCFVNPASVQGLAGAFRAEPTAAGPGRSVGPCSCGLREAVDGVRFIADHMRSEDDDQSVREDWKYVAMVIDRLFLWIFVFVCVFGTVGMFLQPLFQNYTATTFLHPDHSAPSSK

For the compound `Cl.Cl.Clc1ncc(OC[C@@H]2CCCN2)cc1-c1cccnc1` [Example 34, 5-(3-Pyridinyl)-6-chloro-3-(2-(S)-pyrrolidinylmethoxy)pyridine Dihydrochloride], the melting point lay in the range of 195 to 198 °C. Moreover, the Emax in data set [1] (86Rb+ efflux, percent relative to the response elicited by 100 μM (S)-nicotine, read-out: IMR-32 maximal response) is 88%. For the same compound, in data set [2], the negative-log Ki (pKi) was 10.68.

For the compound `CN1CCC[C@H]1COc1cncc(-c2cc3ccccc3n2C)c1.Cl` [Example 36, 5-(1-Methyl-2-indolyl)-3-(1-methyl-2-(S)-pyrrolidinylmethoxy)pyridine Hydrochloride], the melting point lay in the range of 195 to 197 °C. Moreover, in data set [1], at 1 µM the inhibition was 28%. In addition, in data set [2], the pKi was 9.49.

`CN1CCC[C@H]1COc1cncc(-c2ccc(Cl)cc2Cl)c1.Cl.Cl` [Example 39, 5-(2,4-Dichlorophenyl)-3-(1-methyl-2-(S)-pyrrolidinylmethoxy)pyridine Dihydrochloride] gave a melting point of 176 to 178 °C. The same compound displayed an inhibition at 1 µM in data set [1] of 52%. The negative-log Ki (pKi) in data set [2] is 9.80.

`CN1CCC[C@H]1COc1cncc(-c2ccc(Cl)cc2)c1.Cl.Cl` [Example 38, 5-(4-Chlorophenyl)-3-(1-methyl-2-(S)-pyrrolidinylmethoxy)pyridine Dihydrochloride]: the melting point lay in the range of 224 to 226 °C. In data set [1], this compound displayed an inhibition at 1 µM of 29% and an inhibition at 10 µM of 100%. Also, the pKi in data set [2] was 10.09.

In the case of `CN1CCC[C@H]1COc1cncc(C#Cc2ccccc2)c1.Cl.Cl` [Example 40, 5-(2-Phenylethynyl)-3-(1-methyl-2-(S)-pyrrolidinylmethoxy)pyridine Dihydrochloride], the melting point was 190 to 192 °C. Besides, in data set [1], the inhibition at 1 µM was determined as 30% and at 10 µM the inhibition was 100%. Also, the pKi in data set [2] is 9.80.

With `Cc1ccc(-c2cncc(OC[C@@H]3CCCN3C)c2)cc1.Cl.Cl` [Example 41, 5-(4-Methylphenyl)-3-(1-methyl-2-(S)-pyrrolidinylmethoxy)pyridine Dihydrochloride], the melting point lay in the range of 204 to 206 °C. In data set [1], the inhibition at 1 µM came out at 41% and the inhibition at 10 µM came to 100%. The negative-log Ki (pKi) in data set [2] is 9.89.

The compound `CN1CCC[C@H]1COc1cncc(-c2ccco2)c1` [Example 5, 5-(2-Furanyl-3-(1-methyl-2-(S)-pyrrolidinylmethoxy)pyridine Dihydrochloride] gave an inhibition at 1 µM in data set [1] of 27%. The negative-log Ki (pKi) in data set [2] is 9.72.

With `CN1CCC[C@H]1COc1cncc(-c2ccc(F)c(Cl)c2)c1` [Example 42, 5-(3-Chloro-4-fluorolphenyl)-3-(1-methyl-2-(S)-pyrrolidinylmethoxy)pyridine Dihydrochloride], the inhibition at 1 µM in data set [1] turned out to be 38%. In data set [2], the negative-log Ki (pKi) was 10.26.

As for `CN1CCC[C@H]1COc1cncc(-c2cccc(N)c2)c1.Cl.Cl` [Example 43, 5-(3-Aminophenyl)-3-(1-methyl-2-(S)-pyrrolidinylmethoxy)pyridine Dihydrochloride], the melting point is 80 to 82 °C. The inhibition at 1 µM in data set [1] is 36%. Besides, the negative-log Ki (pKi) in data set [2] was 9.37.

Regarding `CC(=O)c1cncc(OC[C@@H]2CCCN2C)c1` [Example 10, 5-Acetyl-3-(1-methyl-2-(S)-pyrrolidinylmethoxy)pyridine Dihydrochloride], in data set [1], 1 µM produced 32% inhibition. Moreover, the negative logarithm of the Ki (pKi) in data set [2] was 8.92.

For `CN1CCC[C@H]1COc1cncc(/C=C/c2ccccc2)c1` [Example 18, 5-trans-(2-Phenylethenyl)-3-(1-methyl-2-(S)-pyrrolidinylmethoxy)pyridine Dihydrochloride], the inhibition at 1 µM in data set [1] turned out to be 43%. For the same compound, the pKi in data set [2] was 9.62.

Regarding `CN1CCC[C@H]1COc1cncc(CCc2ccccc2)c1` [Example 21, 5-(2-Phenylethyl)-3-(1-methyl-2-(S)-pyrrolidinylmethoxy)pyridine Dihydrochloride], in data set [1], the inhibition at 1 µM worked out at 22%. For the same compound, the negative logarithm of the Ki (pKi) in data set [2] was 9.66.
